tested on: not listed separately; test: Antiproliferative activity against human LOXIMVI cells assessed as cell growth at 10^-4 M after 48 hrs by sulforhodamine B assay; format: functional; conditions: LOX IMVI, read-out: Activity

Structure (SMILES)	growth at 100 µM
CNC(=O)c1cc(Oc2ccc3nc(NC(=O)Nc4ccc(Cl)c(C(F)(F)F)c4)sc3c2)ccn1	11%

tested on: SK-MEL-2; test: Antiproliferative activity against human SK-MEL-2 cells assessed as growth inhibition after 48 hrs by sulforhodamine B assay; format: functional; conditions: SK-MEL-2, 48 h

Structure (SMILES)	GI50	TGI
CNC(=O)c1cc(Oc2ccc(NC(=O)Nc3ccc(Cl)c(C(F)(F)F)c3)cc2)ccn1 [SORAFENIB]	2 µM	3.16 µM
CNC(=O)c1cc(Oc2ccc3nc(NC(=O)Nc4ccc(Cl)c(C(F)(F)F)c4)sc3c2)ccn1	5.69 µM	47 µM

same assay, conditions: SK-MEL-2, 48 h, read-out: LC50 (the source's name)

Structure (SMILES)	CC50
CNC(=O)c1cc(Oc2ccc(NC(=O)Nc3ccc(Cl)c(C(F)(F)F)c3)cc2)ccn1 [SORAFENIB]	6.31 µM
CNC(=O)c1cc(Oc2ccc3nc(NC(=O)Nc4ccc(Cl)c(C(F)(F)F)c4)sc3c2)ccn1	> 100 µM

tested on: not listed separately; test: Antiproliferative activity against human Hs 578T cells assessed as cell growth at 10^-4 M after 48 hrs by sulforhodamine B assay; format: functional; conditions: read-out: Activity

Structure (SMILES)	growth at 100 µM
CNC(=O)c1cc(Oc2ccc3nc(NC(=O)Nc4ccc(Cl)c(C(F)(F)F)c4)sc3c2)ccn1	-12%

tested on: not listed separately; test: Antiproliferative activity against human HOP92 cells assessed as cell growth at 10^-8 M after 48 hrs by sulforhodamine B assay; format: functional; conditions: HOP-92, 48 h, read-out: Activity

Structure (SMILES)	growth at 0.01 µM
CNC(=O)c1cc(Oc2ccc3nc(NC(=O)Nc4ccc(Cl)c(C(F)(F)F)c4)sc3c2)ccn1	85%

tested on: Serine/threonine-protein kinase B-raf (Homo sapiens), P15056 [V600E]; test: Inhibition of BRAF V600E mutant (unknown origin) at 10 uM measured after 40 mins by scintillation counting; conditions: not given
Sequence (P15056 whole entry V600E): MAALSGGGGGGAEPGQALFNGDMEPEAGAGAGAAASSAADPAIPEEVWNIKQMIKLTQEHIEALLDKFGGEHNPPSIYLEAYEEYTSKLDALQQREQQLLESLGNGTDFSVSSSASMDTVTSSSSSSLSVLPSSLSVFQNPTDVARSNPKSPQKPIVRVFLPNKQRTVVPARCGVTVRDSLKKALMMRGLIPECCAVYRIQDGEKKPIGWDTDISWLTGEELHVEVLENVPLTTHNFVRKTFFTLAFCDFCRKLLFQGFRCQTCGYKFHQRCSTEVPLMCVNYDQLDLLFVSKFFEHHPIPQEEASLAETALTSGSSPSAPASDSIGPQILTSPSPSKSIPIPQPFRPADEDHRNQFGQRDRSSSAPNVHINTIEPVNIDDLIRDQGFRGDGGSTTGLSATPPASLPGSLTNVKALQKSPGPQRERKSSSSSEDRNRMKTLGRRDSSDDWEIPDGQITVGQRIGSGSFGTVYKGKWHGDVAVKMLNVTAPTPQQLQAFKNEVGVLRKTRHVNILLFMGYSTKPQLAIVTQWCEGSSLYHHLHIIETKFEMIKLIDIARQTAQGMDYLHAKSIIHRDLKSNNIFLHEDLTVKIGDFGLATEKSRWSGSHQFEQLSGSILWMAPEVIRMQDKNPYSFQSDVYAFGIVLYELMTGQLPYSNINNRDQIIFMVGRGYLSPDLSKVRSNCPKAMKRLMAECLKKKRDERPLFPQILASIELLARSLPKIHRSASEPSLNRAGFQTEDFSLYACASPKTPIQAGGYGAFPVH

Structure (SMILES)	inhibition
CNC(=O)c1cc(Oc2ccc3nc(NC(=O)Nc4ccc(Cl)c(C(F)(F)F)c4)sc3c2)ccn1	55.1%

tested on: not listed separately; test: Antiproliferative activity against human OVCAR5 cells assessed as cell growth at 10^-8 M after 48 hrs by sulforhodamine B assay; format: functional; conditions: OVCAR-5, 48 h, read-out: Activity

Structure (SMILES)	growth at 0.01 µM
CNC(=O)c1cc(Oc2ccc3nc(NC(=O)Nc4ccc(Cl)c(C(F)(F)F)c4)sc3c2)ccn1	90%

tested on: not listed separately; test: Antiproliferative activity against human OVCAR4 cells assessed as cell growth at 10^-8 M after 48 hrs by sulforhodamine B assay; format: functional; conditions: OVCAR-4, 48 h, read-out: Activity

Structure (SMILES)	growth at 0.01 µM
CNC(=O)c1cc(Oc2ccc3nc(NC(=O)Nc4ccc(Cl)c(C(F)(F)F)c4)sc3c2)ccn1	93%

tested on: not listed separately; test: Antiproliferative activity against human HOP92 cells assessed as cell growth at 10^-7 M after 48 hrs by sulforhodamine B assay; format: functional; conditions: HOP-92, 48 h, read-out: Activity

Structure (SMILES)	growth at 0.1 µM
CNC(=O)c1cc(Oc2ccc3nc(NC(=O)Nc4ccc(Cl)c(C(F)(F)F)c4)sc3c2)ccn1	80%

tested on: not listed separately; test: Antiproliferative activity against human OVCAR8 cells assessed as cell growth at 10^-6 M after 48 hrs by sulforhodamine B assay; format: functional; conditions: OVCAR-8, 48 h, read-out: Activity

Structure (SMILES)	growth at 1 µM
CNC(=O)c1cc(Oc2ccc3nc(NC(=O)Nc4ccc(Cl)c(C(F)(F)F)c4)sc3c2)ccn1	103%

tested on: Malme-3M; test: Antiproliferative activity against human MALME-3M cells assessed as growth inhibition after 48 hrs by sulforhodamine B assay; format: functional; conditions: not given

Structure (SMILES)	GI50	TGI
CNC(=O)c1cc(Oc2ccc(NC(=O)Nc3ccc(Cl)c(C(F)(F)F)c3)cc2)ccn1 [SORAFENIB]	2 µM	6.31 µM
CNC(=O)c1cc(Oc2ccc3nc(NC(=O)Nc4ccc(Cl)c(C(F)(F)F)c4)sc3c2)ccn1	1.61 µM	3.63 µM

same assay, conditions: read-out: LC50 (the source's name)

Structure (SMILES)	CC50
CNC(=O)c1cc(Oc2ccc(NC(=O)Nc3ccc(Cl)c(C(F)(F)F)c3)cc2)ccn1 [SORAFENIB]	63.1 µM

tested on: SK-MEL-2; test: Antiproliferative activity against human SK-MEL-2 cells assessed as cell growth at 10^-4 M after 48 hrs by sulforhodamine B assay; format: functional; conditions: SK-MEL-2, 48 h, read-out: Activity

Structure (SMILES)	growth at 100 µM
CNC(=O)c1cc(Oc2ccc3nc(NC(=O)Nc4ccc(Cl)c(C(F)(F)F)c4)sc3c2)ccn1	-18%

tested on: not listed separately; test: Antiproliferative activity against human RXF393 cells assessed as cell growth at 10^-6 M after 48 hrs by sulforhodamine B assay; format: functional; conditions: RXF 393, 48 h, read-out: Activity

Structure (SMILES)	growth at 1 µM
CNC(=O)c1cc(Oc2ccc3nc(NC(=O)Nc4ccc(Cl)c(C(F)(F)F)c4)sc3c2)ccn1	88%

tested on: not listed separately; test: Antiproliferative activity against human UACC257 cells assessed as growth inhibition after 48 hrs by sulforhodamine B assay; format: functional; conditions: UACC-257, 48 h

Structure (SMILES)	GI50	TGI
CNC(=O)c1cc(Oc2ccc(NC(=O)Nc3ccc(Cl)c(C(F)(F)F)c3)cc2)ccn1 [SORAFENIB]	2 µM	5.01 µM
CNC(=O)c1cc(Oc2ccc3nc(NC(=O)Nc4ccc(Cl)c(C(F)(F)F)c4)sc3c2)ccn1	3.37 µM	> 100 µM

same assay, conditions: UACC-257, 48 h, read-out: LC50 (the source's name)

Structure (SMILES)	CC50
CNC(=O)c1cc(Oc2ccc(NC(=O)Nc3ccc(Cl)c(C(F)(F)F)c3)cc2)ccn1 [SORAFENIB]	20 µM
CNC(=O)c1cc(Oc2ccc3nc(NC(=O)Nc4ccc(Cl)c(C(F)(F)F)c4)sc3c2)ccn1	> 100 µM

tested on: EKVX; test: Antiproliferative activity against human EKVX cells assessed as cell growth at 10^-4 M after 48 hrs by sulforhodamine B assay; format: functional; conditions: read-out: Activity

Structure (SMILES)	growth at 100 µM
CNC(=O)c1cc(Oc2ccc3nc(NC(=O)Nc4ccc(Cl)c(C(F)(F)F)c4)sc3c2)ccn1	-32%

tested on: not listed separately; test: Antiproliferative activity against human SF295 cells assessed as cell growth at 10^-6 M after 48 hrs by sulforhodamine B assay; format: functional; conditions: SF-295, 48 h, read-out: Activity

Structure (SMILES)	growth at 1 µM
CNC(=O)c1cc(Oc2ccc3nc(NC(=O)Nc4ccc(Cl)c(C(F)(F)F)c4)sc3c2)ccn1	90%

tested on: not listed separately; test: Antiproliferative activity against human PC3 cells assessed as cell growth at 10^-7 M after 48 hrs by sulforhodamine B assay; format: functional; conditions: PC-3, 48 h, read-out: Activity

Structure (SMILES)	growth at 0.1 µM
CNC(=O)c1cc(Oc2ccc3nc(NC(=O)Nc4ccc(Cl)c(C(F)(F)F)c4)sc3c2)ccn1	87%

tested on: not listed separately; test: Antiproliferative activity against human HCC2998 cells assessed as cell growth at 10^-7 M after 48 hrs by sulforhodamine B assay; format: functional; conditions: HCC 2998, 48 h, read-out: Activity

Structure (SMILES)	growth at 0.1 µM
CNC(=O)c1cc(Oc2ccc3nc(NC(=O)Nc4ccc(Cl)c(C(F)(F)F)c4)sc3c2)ccn1	108%

tested on: not listed separately; test: Antiproliferative activity against human UO31 cells assessed as cell growth at 10^-7 M after 48 hrs by sulforhodamine B assay; format: functional; conditions: UO-31, 48 h, read-out: Activity

Structure (SMILES)	growth at 0.1 µM
CNC(=O)c1cc(Oc2ccc3nc(NC(=O)Nc4ccc(Cl)c(C(F)(F)F)c4)sc3c2)ccn1	107%

tested on: SR; test: Antiproliferative activity against human SR cells assessed as cell growth at 10^-8 M after 48 hrs by sulforhodamine B assay; format: functional; conditions: read-out: Activity

Structure (SMILES)	growth at 0.01 µM
CNC(=O)c1cc(Oc2ccc3nc(NC(=O)Nc4ccc(Cl)c(C(F)(F)F)c4)sc3c2)ccn1	110%

tested on: not listed separately; test: Antiproliferative activity against human SF268 cells assessed as cell growth at 10^-8 M after 48 hrs by sulforhodamine B assay; format: functional; conditions: SF-268, 48 h, read-out: Activity

Structure (SMILES)	growth at 0.01 µM
CNC(=O)c1cc(Oc2ccc3nc(NC(=O)Nc4ccc(Cl)c(C(F)(F)F)c4)sc3c2)ccn1	107%

tested on: A549; test: Antiproliferative activity against human A549/ATCC cells assessed as cell growth at […] after 48 hrs by sulforhodamine B assay; format: functional; conditions: A549, 48 h, read-out: Activity

Structure (SMILES)	growth at 0.1 µM
CNC(=O)c1cc(Oc2ccc3nc(NC(=O)Nc4ccc(Cl)c(C(F)(F)F)c4)sc3c2)ccn1	105%

tested on: not listed separately; test: Antiproliferative activity against human SW620 cells assessed as cell growth at 10^-4 M after 48 hrs by sulforhodamine B assay; format: functional; conditions: SW-620, 48 h, read-out: Activity

Structure (SMILES)	growth at 100 µM
CNC(=O)c1cc(Oc2ccc3nc(NC(=O)Nc4ccc(Cl)c(C(F)(F)F)c4)sc3c2)ccn1	42%

tested on: NCI-H226; test: Antiproliferative activity against human NCI-H226 cells assessed as cell growth at 10^-8 M after 48 hrs by sulforhodamine B assay; format: functional; conditions: NCI-H226, 48 h, read-out: Activity

Structure (SMILES)	growth at 0.01 µM
CNC(=O)c1cc(Oc2ccc3nc(NC(=O)Nc4ccc(Cl)c(C(F)(F)F)c4)sc3c2)ccn1	93%

tested on: not listed separately; test: Antiproliferative activity against human SNB75 cells assessed as cell growth at 10^-6 M after 48 hrs by sulforhodamine B assay; format: functional; conditions: SNB-75, 48 h, read-out: Activity

Structure (SMILES)	growth at 1 µM
CNC(=O)c1cc(Oc2ccc3nc(NC(=O)Nc4ccc(Cl)c(C(F)(F)F)c4)sc3c2)ccn1	78%

tested on: not listed separately; test: Antiproliferative activity against human Caki1 cells assessed as cell growth at 10^-7 M after 48 hrs by sulforhodamine B assay; format: functional; conditions: CAKI-1, 48 h, read-out: Activity

Structure (SMILES)	growth at 0.1 µM
CNC(=O)c1cc(Oc2ccc3nc(NC(=O)Nc4ccc(Cl)c(C(F)(F)F)c4)sc3c2)ccn1	93%

tested on: SN12C; test: Antiproliferative activity against human SN12C cells assessed as cell growth at 10^-4 M after 48 hrs by sulforhodamine B assay; format: functional; conditions: read-out: Activity

Structure (SMILES)	growth at 100 µM
CNC(=O)c1cc(Oc2ccc3nc(NC(=O)Nc4ccc(Cl)c(C(F)(F)F)c4)sc3c2)ccn1	12%

tested on: SK-MEL-28; test: Antiproliferative activity against human SK-MEL-28 cells assessed as cell growth at 10^-6 M after 48 hrs by sulforhodamine B assay; format: functional; conditions: SK-MEL-28, 48 h, read-out: Activity

Structure (SMILES)	growth at 1 µM
CNC(=O)c1cc(Oc2ccc3nc(NC(=O)Nc4ccc(Cl)c(C(F)(F)F)c4)sc3c2)ccn1	78%

tested on: A549; test: Antiproliferative activity against human A549/ATCC cells assessed as cell growth at 10^-6 M after 48 hrs by sulforhodamine B assay; format: functional; conditions: A549, 48 h, read-out: Activity

Structure (SMILES)	growth at 1 µM
CNC(=O)c1cc(Oc2ccc3nc(NC(=O)Nc4ccc(Cl)c(C(F)(F)F)c4)sc3c2)ccn1	90%

tested on: not listed separately; test: Antiproliferative activity against human OVCAR4 cells assessed as growth inhibition after 48 hrs by sulforhodamine B assay; format: functional; conditions: OVCAR-4, 48 h

Structure (SMILES)	GI50	TGI
CNC(=O)c1cc(Oc2ccc(NC(=O)Nc3ccc(Cl)c(C(F)(F)F)c3)cc2)ccn1 [SORAFENIB]	3.16 µM	12.6 µM
CNC(=O)c1cc(Oc2ccc3nc(NC(=O)Nc4ccc(Cl)c(C(F)(F)F)c4)sc3c2)ccn1	1.59 µM	3.31 µM

same assay, conditions: OVCAR-4, 48 h, read-out: LC50 (the source's name)

Structure (SMILES)	CC50
CNC(=O)c1cc(Oc2ccc(NC(=O)Nc3ccc(Cl)c(C(F)(F)F)c3)cc2)ccn1 [SORAFENIB]	100 µM

biological target: T1, CYP1A2 (Homo sapiens, UniProt P05177); test: Inhibition of recombinant human CYP1A2 assessed as remaining enzyme activity using CYP1A2 blue as substrate at 10 uM after 5 mins in presence of NADP by fluorescence plate reader analysis; format: ADME; conditions: recombinant human CYP1A2, probe CYP1A2 blue, read-out: Activity
T1 sequence (P05177 whole entry): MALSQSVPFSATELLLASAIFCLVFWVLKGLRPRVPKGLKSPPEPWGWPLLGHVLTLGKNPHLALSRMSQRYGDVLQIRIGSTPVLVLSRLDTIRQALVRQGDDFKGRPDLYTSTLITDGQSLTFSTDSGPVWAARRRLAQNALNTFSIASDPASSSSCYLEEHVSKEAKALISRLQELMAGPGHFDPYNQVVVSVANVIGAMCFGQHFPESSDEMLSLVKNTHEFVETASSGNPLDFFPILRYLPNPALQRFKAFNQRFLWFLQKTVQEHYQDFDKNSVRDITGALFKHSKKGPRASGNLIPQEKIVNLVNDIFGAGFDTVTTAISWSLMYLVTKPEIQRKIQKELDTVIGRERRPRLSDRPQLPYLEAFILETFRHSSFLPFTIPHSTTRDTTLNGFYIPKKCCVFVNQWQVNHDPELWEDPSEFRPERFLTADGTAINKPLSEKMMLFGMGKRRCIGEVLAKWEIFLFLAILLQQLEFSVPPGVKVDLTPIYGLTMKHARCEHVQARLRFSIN

Structure (SMILES)	activity at 5 min, 10 µM
CNC(=O)c1cc(Oc2ccc3nc(NC(=O)Nc4ccc(Cl)c(C(F)(F)F)c4)sc3c2)ccn1	106%

Source: ChEMBL document CHEMBL3797052 (Eur J Med Chem, 2016)
